The subject of series [1] is Mycosphaerella graminicola; Anamorph: Septoria tritici. Kind of series: Fungicidal activity: Leaf Blotch of Wheat (SEPTTR), wheat plants variety Yuma. It is filed as in vivo. As to conditions: Zymoseptoria tritici. The protocol:
Evaluation of Fungicidal Activity: Leaf Blotch of Wheat (Mycosphaerella graminicola; Anamorph: Septoria tritici; Bayer Code […]) Wheat plants (variety Yuma) were grown from seed in a greenhouse in 50% mineral soil/50% soil-less Metro mix until the first leaf was fully emerged, with 7-10 seedlings per pot. These plants were inoculated with an aqueous spore suspension of Septoria tritici either prior to or after fungicide treatments. After inoculation the plants were kept in 100% relative humidity (one day in a dark dew chamber followed by two to three days in a lighted dew chamber) to permit spores to germinate and infect the leaf. The plants were then transferred to a greenhouse at 20° C. for disease to develop.

Series [2] concerns Puccinia triticina. Synonym: Puccinia recondite f. sp. tritici. The series is described as follows: Fungicidal activity: Wheat Brown Rust (PUCCRT), wheat plants variety Yuma. It is filed as in vivo. The arrangement: key to PUCCRT 3DC Disease Control: A: 50-100; B: More than 0-Less than 50; C: Not Tested; D: No activity noticed in this bioassay. Particulars: for pest or weed control at 100 ppm: Puccinia triticina; for PUCCRT 3DC Disease Control: 100 ppm. The protocol: Evaluation of Fungicidal Activity: Wheat Brown Rust (Puccinia triticina. Synonym: Puccinia recondite f. sp. tritici; Bayer Code PUCCRT) Wheat plants (variety Yuma) were grown from seed in a greenhouse in 50% mineral soil/50% soil-less Metro mix until the first leaf was fully emerged, with 7-10 seedlings per pot. These plants were inoculated with an aqueous spore suspension of Puccinia recondite f. sp. tritici either prior to or after fungicide treatments. After inoculation the plants were kept in 100% relative humidity overnight to permit spores to germinate and infect the leaf. The plants were then transferred to a greenhouse set at 24 C for disease to develop.

[3] abbreviates: 24 h, 1 Day Protectant, read-out: SEPTTR 1DP Disease Control.
Where [4] appears, read: 72 h, 3 Day Curative, read-out: SEPTTR 3DC Disease Control.
[5] abbreviates: 24 h, 1 Day Protectant, read-out: PUCCRT 1DP Disease Control.
[6] abbreviates: 72 h, 3 Day Curative, read-out: PUCCRT 3DC Disease Control.

This is an account of results in patent US9131690B2, “Macrocyclic picolinamides as fungicides” (Dow AgroSciences LLC, priority 2012, dated 2015).

Like-named read-outs stand apart in the source and are kept apart here.

In the case of `COc1ccnc(C(=O)N[C@H]2COC(=O)[C@H](Cc3ccc(F)cc3)[C@@H](OC(=O)C(C)C)[C@H](C)OC2=O)c1OCOC(=O)C(C)C` [Compound 20], the pest or weed control at 100 ppm in series [1] (setting [3]), in series [1] (setting [4]), in series [2] (setting [5]) and in series [2] (setting [6]) was 50 to 100% in each case.

Turning to `COCC[C@H]1C(=O)OC[C@H](NC(=O)c2nccc(OC)c2OCOC(=O)C(C)C)C(=O)O[C@@H](C)[C@@H]1OC(=O)C(C)C` [Compound 28], the pest or weed control at 100 ppm in series [1] (setting [3]), in series [1] (setting [4]), in series [2] (setting [5]) and in series [2] (setting [6]) was 50 to 100% in each case.

`COc1ccnc(C(=O)N[C@H]2COC(=O)[C@H](CC(=O)Oc3ccccc3)[C@@H](OC(=O)C(C)C)[C@H](C)OC2=O)c1O` [Compound 48] returned a melting point of 176 to 178 °C. Besides, the pest or weed control at 100 ppm in series [1] (setting [3]) lay within 50 to 100%. The pest or weed control at 100 ppm in series [1] (setting [4]) fell in the range of 0 to 50%. The “PUCCRT 3DC Disease Control” value in series [2] (3 Day Curative) is listed as “D”. The pest or weed control at 100 ppm in series [2] (setting [5]) was 50 to 100%.

`COc1ccnc(C(=O)N[C@H]2COC(=O)[C@H](Cc3cccc(-c4ccccc4)c3)[C@@H](OC(=O)C(C)C)[C@H](C)OC2=O)c1O` [Compound 13] registered a melting point of 182 to 186 °C. The pest or weed control at 100 ppm in series [1] (setting [3]) was in the range of 50 to 100%. The pest or weed control at 100 ppm in series [1] (setting [4]) lay in the range of 0 to 50%. For the same compound, the pest or weed control at 100 ppm in series [2] (setting [5]) lay within 50 to 100%. For the same compound, in series [2] (setting [6]), the pest or weed control at 100 ppm fell in the range of 0 to 50%.

With `COc1ccc(C[C@H]2C(=O)OC[C@H](NC(=O)c3nccc(OC)c3O)C(=O)O[C@@H](C)[C@@H]2OC(=O)C(C)C)cc1` [Compound 8], the pest or weed control at 100 ppm in series [1] (setting [3]) is 50 to 100%; in series [1] (setting [4]) it was 0 to 50%; in series [2] (setting [5]) it was 50 to 100%; in series [2] (setting [6]), 50 to 100%.

With `COc1ccnc(C(=O)N[C@H]2COC(=O)[C@H](CCc3ccc(F)cc3)[C@@H](OC(=O)C(C)C)[C@H](C)OC2=O)c1O` [Compound 58], the melting point was 142 to 144 °C. Besides, the pest or weed control at 100 ppm in series [1] (setting [3]) is 50 to 100%. In addition, in series [1] (setting [4]), the pest or weed control at 100 ppm was in the range of 0 to 50%. The pest or weed control at 100 ppm in series [2] (setting [5]) fell in the range of 50 to 100%. Further, the pest or weed control at 100 ppm in series [2] (setting [6]) was 50 to 100%.

For `COc1ccnc(C(=O)N[C@H]2COC(=O)[C@H](CI)[C@@H](OC(=O)C(C)C)[C@H](C)OC2=O)c1O` [Compound 11], the melting point is 186 to 191 °C. Also, in series [1] (setting [3]), the pest or weed control at 100 ppm fell in the range of 50 to 100%. Besides, the pest or weed control at 100 ppm in series [1] (setting [4]) was 0 to 50%. The pest or weed control at 100 ppm in series [2] (setting [5]) was 50 to 100%. For the same compound, the pest or weed control at 100 ppm in series [2] (setting [6]) was in the range of 50 to 100%.

Regarding `COc1ccnc(C(=O)N[C@H]2COC(=O)[C@H](CCc3ccccc3)[C@@H](OC(=O)C(C)C)[C@H](C)OC2=O)c1OCOC(=O)C(C)C` [Compound 32], the pest or weed control at 100 ppm in series [1] (setting [3]), in series [1] (setting [4]), in series [2] (setting [5]) and in series [2] (setting [6]) was 50 to 100% each time.

`COc1ccnc(C(=O)N[C@H]2COC(=O)[C@H](Cc3ccc(Cl)cc3)[C@@H](OC(=O)C(C)C)[C@H](C)OC2=O)c1O` [Compound 9] yielded a melting point of 192 to 194 °C. In addition, the pest or weed control at 100 ppm in series [1] (setting [3]) lay within 50 to 100%. In addition, in series [1] (setting [4]), the pest or weed control at 100 ppm fell in the range of 0 to 50%. Moreover, the pest or weed control at 100 ppm in series [2] (setting [5]) lay within 50 to 100%. The pest or weed control at 100 ppm in series [2] (setting [6]) was in the range of 50 to 100%.

Compound `COc1ccnc(C(=O)N[C@H]2COC(=O)[C@H](Cc3cccnc3)[C@@H](OC(=O)C(C)C)[C@H](C)OC2=O)c1O` [Compound 2] registered a melting point of 148 to 155 °C. In addition, the pest or weed control at 100 ppm in series [1] (setting [3]) was in the range of 50 to 100%. For the same compound, in series [1] (setting [4]), the pest or weed control at 100 ppm lay in the range of 50 to 100%. Moreover, in series [2] (setting [5]), the pest or weed control at 100 ppm fell in the range of 50 to 100%. In addition, in series [2] (setting [6]), the pest or weed control at 100 ppm lay in the range of 50 to 100%.

Take `COc1ccnc(C(=O)N[C@H]2COC(=O)[C@H](CCC3CCCCC3)[C@@H](OC(=O)C(C)C)[C@H](C)OC2=O)c1O` [Compound 62]: the pest or weed control at 100 ppm in series [1] (setting [3]) lay in the range of 50 to 100%; in series [1] (setting [4]), 0 to 50%; in series [2] (setting [5]) it was 50 to 100%; in series [2] (setting [6]), 0 to 50%.

Turning to `COC(=O)C[C@H]1C(=O)OC[C@H](NC(=O)c2nccc(OC)c2O)C(=O)O[C@@H](C)[C@@H]1OC(=O)C(C)C` [Compound 50], the melting point is 138 to 140 °C. Further, the pest or weed control at 100 ppm in series [1] (setting [3]) was 50 to 100%. Also, the pest or weed control at 100 ppm in series [1] (setting [4]) lay within 50 to 100%. Also, the pest or weed control at 100 ppm in series [2] (setting [5]) was 50 to 100%. The pest or weed control at 100 ppm in series [2] (setting [6]) lay in the range of 50 to 100%.

Take `COc1ccnc(C(=O)N[C@H]2COC(=O)[C@H](CCOCc3ccccc3)[C@@H](OC(=O)C(C)C)[C@H](C)OC2=O)c1OCOC(=O)C(C)C` [Compound 29]: the pest or weed control at 100 ppm was 50 to 100% in series [1] (setting [3]), 0 to 50% in series [1] (setting [4]), 50 to 100% in series [2] (setting [5]) and 50 to 100% in series [2] (setting [6]).

`COc1ccnc(C(=O)N[C@H]2COC(=O)[C@H](Cc3ccc(C)cc3)[C@@H](OC(=O)C(C)C)[C@H](C)OC2=O)c1OCOC(=O)C(C)C` [Compound 22] had a melting point of 131 to 133 °C. The pest or weed control at 100 ppm in series [1] (setting [3]) is 0 to 50%. Further, the pest or weed control at 100 ppm in series [1] (setting [4]) was 0 to 50%. Besides, the pest or weed control at 100 ppm in series [2] (setting [5]) is 50 to 100%. Further, in series [2] (setting [6]), the pest or weed control at 100 ppm is 50 to 100%.

On to `COc1ccnc(C(=O)N[C@H]2COC(=O)[C@H](Cc3ccc(F)cc3F)[C@@H](OC(=O)C(C)C)[C@H](C)OC2=O)c1OCOC(=O)C(C)C` [Compound 21], for which the pest or weed control at 100 ppm in series [1] (setting [3]), in series [1] (setting [4]), in series [2] (setting [5]) and in series [2] (setting [6]) was 50 to 100% each time.

As to `CCC[C@H]1C(=O)OC[C@H](NC(=O)c2nccc(OC)c2OCOC(=O)C(C)C)C(=O)O[C@@H](C)[C@@H]1OC(=O)C(C)C` [Compound 34], the pest or weed control at 100 ppm in series [1] (setting [3]), in series [1] (setting [4]), in series [2] (setting [5]) and in series [2] (setting [6]) was 50 to 100% in each case.

For `COc1ccnc(C(=O)N[C@H]2COC(=O)[C@H](CCOC(=O)c3cc(OC)c(OC)c(OC)c3)[C@@H](OC(=O)C(C)C)[C@H](C)OC2=O)c1O` [Compound 41], the pest or weed control at 100 ppm in series [1] (setting [3]) lay in the range of 0 to 50%; in series [1] (setting [4]), 0 to 50%; in series [2] (setting [5]), 50 to 100%. Also, the “PUCCRT 3DC Disease Control” value in series [2] (3 Day Curative) is given as “D”.

For the compound `COc1ccnc(C(=O)N[C@H]2COC(=O)[C@H](CC(=O)OC(C)(C)C)[C@@H](OC(=O)C(C)C)[C@H](C)OC2=O)c1OCOC(=O)C(C)C` [Compound 30], the pest or weed control at 100 ppm in series [1] (setting [3]), in series [1] (setting [4]), in series [2] (setting [5]) and in series [2] (setting [6]) was 50 to 100% in each case.

On to `COCC[C@H]1C(=O)OC[C@H](NC(=O)c2nccc(OC)c2O)C(=O)O[C@@H](C)[C@@H]1OC(=O)C(C)C` [Compound 44, (3S,6S,7R,8R)-3-(3-hydroxy-4-methoxypicolinamido)-8-(2-methoxyethyl)-6-methyl-4,9-dioxo-1,5-dioxonan-7-yl isobutyrate], for which the pest or weed control at 100 ppm in series [1] (setting [3]), in series [1] (setting [4]), in series [2] (setting [5]) and in series [2] (setting [6]) was 50 to 100% each time.

On to `COc1ccnc(C(=O)N[C@H]2COC(=O)[C@H](CCOC(=O)C(C)C)[C@@H](OC(=O)C(C)C)[C@H](C)OC2=O)c1O` [Compound 36], for which the pest or weed control at 100 ppm in series [1] (setting [3]) lay within 50 to 100%; in series [1] (setting [4]), 0 to 50%; in series [2] (setting [5]) it was 50 to 100%. For the same compound, the “PUCCRT 3DC Disease Control” value in series [2] (3 Day Curative) was “D”.

Regarding `COc1ccnc(C(=O)N[C@H]2COC(=O)[C@H](CCc3cccnc3)[C@@H](OC(=O)C(C)C)[C@H](C)OC2=O)c1OCOC(=O)C(C)C` [Compound 31], the pest or weed control at 100 ppm in series [1] (setting [3]) was 0 to 50%; in series [1] (setting [4]), 0 to 50%; in series [2] (setting [5]) it was 50 to 100%; in series [2] (setting [6]), 0 to 50%.

As to `COc1ccnc(C(=O)N[C@H]2COC(=O)[C@H](CCOC(=O)C(C)(C)C)[C@@H](OC(=O)C(C)C)[C@H](C)OC2=O)c1O` [Compound 37], the pest or weed control at 100 ppm in series [1] (setting [3]) was 50 to 100%; in series [1] (setting [4]), 0 to 50%; in series [2] (setting [5]), 50 to 100%; in series [2] (setting [6]) it was 0 to 50%.

As for `CCCCCCC[C@H]1C(=O)OC[C@H](NC(=O)c2nccc(OC)c2OCOC(=O)C(C)C)C(=O)O[C@@H](C)[C@@H]1OC(=O)C(C)C` [Compound 33], the pest or weed control at 100 ppm in series [1] (setting [3]), in series [1] (setting [4]), in series [2] (setting [5]) and in series [2] (setting [6]) was 50 to 100% each time.
